Measured values from publication PMC11415492 (Nature Communications, 2024).
“And” between values parts separate entries of the source, which are not always exact repeats. Equal values may be shown once. Where a name gives a salt, the structure may show the parent alone.

Key:
[1] = target: T1, hKOR (Homo sapiens, UniProt P41145); experiment: G protein activation BRET assay; assay type: cell-based; details: for response, Fig. S5b concentration-response point (replicates): Log [Drug]
T1 construct: expressed in transfected cells; host or cells: HEK-293T, transient (PEI)

[2] = target: T2, mMOR (Mus musculus, UniProt P42866); experiment: G protein activation BRET assay; assay type: cell-based; details: for Fig. S5h concentration-response data point: Log [Drug], single replicate values
T2 construct: expressed in transfected cells; host or cells: HEK-293T, transient (PEI)

[3] = target: T3, rKOR (Rattus norvegicus, UniProt P34975); experiment: Nanobody Nb33 sensor recruitment BRET assay; assay type: cell-based; details: for response, Fig. S5c concentration-response point (replicates): Log [Drug]
T3 construct: signal peptide (N); expressed in transfected cells; host or cells: HEK-293T, transient (PEI)

[4] = target: T4, hSERT (Homo sapiens, UniProt P31645); experiment: hSERT inhibition assay (APP+ fluorescence uptake); assay type: cell-based
T4 construct: expressed in transfected cells
Experimental: Stably transfected hSERT-HEK cellular cultures were maintained in Dulbecco’s Minimal Essential Medium (DMEM) with GlutaMAX (Gibco-Thermo Fisher Scientific, Waltham, MA) with the following additions: 10% (v/v) Fetal Bovine Serum (FBS, Atlanta Biologicals, Flowery Branch, GA), 100 U/mL Penicillin 10 μg/mL Streptomycin (Gibco-Thermo Fisher Scientific, Waltham, MA), and 500 μg/mL Geneticin (G418) (Sigma Aldrich, St. Louis, MO). Singly transfected cells were seeded at a density of 0.09 × 10^6 cells/well in poly-D-Lysine (Sigma Aldrich, St. Louis, MO) coated white solid-bottom 96-well plates (Greiner Bio-One, Kremsmünster, Austria). Cells were grown for 44 h in aqueous media at 37 °C under 5% CO2 atmosphere. […] A final solution of 120 μL of PBS was finally added to all corresponding wells for cell maintenance before measuring fluorescence uptake (BioTek H1MF plate reader (BioTek Instruments, Winooski, VT), APP+ excitation and emission wavelengths 436 and 500 nm). Recorded inhibitor values were first subtracted from vehicular values to quantify the respective fluorescence uptake. Data were analyzed using the dose-response-inhibitor nonlinear curve fitting model (log[inhibitor] vs response (four parameters) in Graphpad Prism 10 (Graphpad Software, La Jolla, CA).

[5] = target: T5, hNOP (Homo sapiens, UniProt P41146); experiment: human NOP (Orphanin ORL1) radioligand displacement; assay type: binding
T5 construct: purchased contracted research organization (eurofinsdiscoveryservices.com) item 260600

[6] = target: h5-HT2B (Homo sapiens, UniProt P41595); experiment: IP1 functional assay, antagonist; assay type: cell-based; details: read-out: % Inhibition of Control Agonist Response
[7] = system: male rats; experiment: Food maintained (operant) responding; assay type: in vivo, rat; details: 40 mg/kg i.p.
Experimental: For food maintained responding studies, food access was restricted such that rats were maintained at 90% of their normal body weight until responding stabilized, at which point rats were provided 12–15 g of rodent chow in addition to the food pellets earned during the experimental session.
Rats were lever trained as described in the general methods. Responding was maintained as described with notable difference in timeout (TO) period 6 min and sessions lasting 2 h or until a maximum of 20 pellets was delivered. […] Responding was considered stable when variation in the number of reinforcers for three consecutive sessions was less than 20%. For the group receiving oxa-noribogaine, data were analyzed using a two-way ANOVA with Šidák’s multiple comparisons test for post hoc comparison.

[8] = human
[9] = target: T6, hERG potassium channel (Homo sapiens, UniProt Q12809); details: lit. value; cited from earlier work
T6 construct: purchased contracted research organization (eurofinsdiscoveryservices.com) item 4094

[10] = 180 mg oral dose; cited from earlier work
[11] = in vitro; details: human, pH 7.4
[12] = target: hMOR (Homo sapiens, UniProt P35372); experiment: cell-based
Chain of hMOR (P35372 whole entry): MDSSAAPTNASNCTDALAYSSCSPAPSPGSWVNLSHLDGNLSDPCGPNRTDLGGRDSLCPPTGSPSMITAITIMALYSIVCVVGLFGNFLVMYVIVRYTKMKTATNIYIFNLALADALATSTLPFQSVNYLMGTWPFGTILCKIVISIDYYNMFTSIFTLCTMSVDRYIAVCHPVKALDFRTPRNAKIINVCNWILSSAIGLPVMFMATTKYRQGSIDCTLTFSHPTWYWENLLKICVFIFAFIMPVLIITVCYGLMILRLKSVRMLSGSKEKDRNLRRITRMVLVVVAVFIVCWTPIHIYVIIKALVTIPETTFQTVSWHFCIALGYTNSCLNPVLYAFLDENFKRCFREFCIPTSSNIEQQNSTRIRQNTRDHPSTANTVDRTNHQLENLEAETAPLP

T3 sequence (P34975 whole entry): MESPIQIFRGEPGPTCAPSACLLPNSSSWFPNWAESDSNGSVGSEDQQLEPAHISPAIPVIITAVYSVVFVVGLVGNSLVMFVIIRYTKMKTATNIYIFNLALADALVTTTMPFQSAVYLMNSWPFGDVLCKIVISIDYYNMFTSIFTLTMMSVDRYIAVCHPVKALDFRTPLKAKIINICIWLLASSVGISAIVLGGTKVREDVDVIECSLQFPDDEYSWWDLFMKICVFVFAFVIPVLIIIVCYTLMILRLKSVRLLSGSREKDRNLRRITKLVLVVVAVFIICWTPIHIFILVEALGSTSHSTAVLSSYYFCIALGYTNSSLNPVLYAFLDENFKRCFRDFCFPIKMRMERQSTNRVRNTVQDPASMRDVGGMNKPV
T1 sequence (P41145 whole entry): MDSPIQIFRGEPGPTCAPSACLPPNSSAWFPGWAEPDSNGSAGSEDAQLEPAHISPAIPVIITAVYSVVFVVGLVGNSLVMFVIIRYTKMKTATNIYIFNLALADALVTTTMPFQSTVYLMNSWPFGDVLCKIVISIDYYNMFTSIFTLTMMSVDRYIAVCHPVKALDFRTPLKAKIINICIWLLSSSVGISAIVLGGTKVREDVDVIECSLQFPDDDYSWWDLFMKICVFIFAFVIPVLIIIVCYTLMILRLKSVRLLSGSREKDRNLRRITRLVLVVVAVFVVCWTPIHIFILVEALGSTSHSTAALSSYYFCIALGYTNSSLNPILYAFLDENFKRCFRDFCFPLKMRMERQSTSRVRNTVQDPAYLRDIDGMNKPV
T2 sequence (P42866 whole entry): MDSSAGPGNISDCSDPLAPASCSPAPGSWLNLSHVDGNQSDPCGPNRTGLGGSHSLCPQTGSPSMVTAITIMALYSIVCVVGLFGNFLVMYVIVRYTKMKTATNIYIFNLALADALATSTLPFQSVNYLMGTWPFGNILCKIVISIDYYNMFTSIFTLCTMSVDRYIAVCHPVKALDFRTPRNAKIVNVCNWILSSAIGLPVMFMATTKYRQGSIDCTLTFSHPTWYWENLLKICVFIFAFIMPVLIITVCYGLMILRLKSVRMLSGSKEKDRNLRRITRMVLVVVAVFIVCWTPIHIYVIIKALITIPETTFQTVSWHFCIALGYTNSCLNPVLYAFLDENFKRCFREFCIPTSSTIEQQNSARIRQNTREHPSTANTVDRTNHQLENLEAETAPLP
T5 sequence (P41146 whole entry): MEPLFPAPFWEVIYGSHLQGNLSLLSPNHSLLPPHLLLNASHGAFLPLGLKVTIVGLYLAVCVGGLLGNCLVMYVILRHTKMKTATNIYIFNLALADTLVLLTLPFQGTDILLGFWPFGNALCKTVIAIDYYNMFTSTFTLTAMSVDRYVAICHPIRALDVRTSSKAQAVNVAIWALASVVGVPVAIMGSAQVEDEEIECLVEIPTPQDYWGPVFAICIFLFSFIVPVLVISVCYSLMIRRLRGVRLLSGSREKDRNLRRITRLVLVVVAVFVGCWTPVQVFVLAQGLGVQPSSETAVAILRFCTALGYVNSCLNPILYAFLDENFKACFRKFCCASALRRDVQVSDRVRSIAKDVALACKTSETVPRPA
Chain of h5-HT2B (P41595 whole entry): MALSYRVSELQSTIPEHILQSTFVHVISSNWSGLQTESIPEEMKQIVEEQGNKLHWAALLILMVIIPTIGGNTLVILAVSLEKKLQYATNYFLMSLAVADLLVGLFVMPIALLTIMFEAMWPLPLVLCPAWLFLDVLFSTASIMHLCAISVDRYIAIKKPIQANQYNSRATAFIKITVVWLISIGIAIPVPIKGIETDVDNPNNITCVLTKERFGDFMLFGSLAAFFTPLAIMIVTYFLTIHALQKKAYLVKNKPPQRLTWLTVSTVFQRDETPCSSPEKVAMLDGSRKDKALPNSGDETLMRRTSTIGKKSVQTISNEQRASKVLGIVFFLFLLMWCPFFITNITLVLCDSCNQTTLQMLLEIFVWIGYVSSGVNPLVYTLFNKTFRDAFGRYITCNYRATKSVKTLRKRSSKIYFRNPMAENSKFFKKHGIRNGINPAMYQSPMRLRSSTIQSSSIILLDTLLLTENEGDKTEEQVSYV
T4 sequence (P31645 whole entry): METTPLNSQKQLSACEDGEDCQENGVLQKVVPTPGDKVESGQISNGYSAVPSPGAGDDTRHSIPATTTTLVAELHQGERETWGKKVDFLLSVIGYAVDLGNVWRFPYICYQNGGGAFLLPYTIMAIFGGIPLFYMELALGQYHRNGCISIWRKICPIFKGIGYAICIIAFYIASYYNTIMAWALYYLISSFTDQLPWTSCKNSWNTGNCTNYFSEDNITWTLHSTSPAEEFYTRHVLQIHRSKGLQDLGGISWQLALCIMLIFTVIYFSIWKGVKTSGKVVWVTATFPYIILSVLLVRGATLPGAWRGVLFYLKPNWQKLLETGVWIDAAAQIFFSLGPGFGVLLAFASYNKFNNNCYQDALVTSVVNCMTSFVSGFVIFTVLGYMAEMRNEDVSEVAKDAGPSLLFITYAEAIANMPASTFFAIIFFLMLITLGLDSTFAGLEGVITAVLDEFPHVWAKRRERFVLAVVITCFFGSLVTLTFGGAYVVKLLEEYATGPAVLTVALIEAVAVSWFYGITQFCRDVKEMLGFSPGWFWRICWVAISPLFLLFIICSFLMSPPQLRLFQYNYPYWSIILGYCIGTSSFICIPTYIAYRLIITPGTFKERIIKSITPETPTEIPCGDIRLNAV
T6 sequence (Q12809 whole entry): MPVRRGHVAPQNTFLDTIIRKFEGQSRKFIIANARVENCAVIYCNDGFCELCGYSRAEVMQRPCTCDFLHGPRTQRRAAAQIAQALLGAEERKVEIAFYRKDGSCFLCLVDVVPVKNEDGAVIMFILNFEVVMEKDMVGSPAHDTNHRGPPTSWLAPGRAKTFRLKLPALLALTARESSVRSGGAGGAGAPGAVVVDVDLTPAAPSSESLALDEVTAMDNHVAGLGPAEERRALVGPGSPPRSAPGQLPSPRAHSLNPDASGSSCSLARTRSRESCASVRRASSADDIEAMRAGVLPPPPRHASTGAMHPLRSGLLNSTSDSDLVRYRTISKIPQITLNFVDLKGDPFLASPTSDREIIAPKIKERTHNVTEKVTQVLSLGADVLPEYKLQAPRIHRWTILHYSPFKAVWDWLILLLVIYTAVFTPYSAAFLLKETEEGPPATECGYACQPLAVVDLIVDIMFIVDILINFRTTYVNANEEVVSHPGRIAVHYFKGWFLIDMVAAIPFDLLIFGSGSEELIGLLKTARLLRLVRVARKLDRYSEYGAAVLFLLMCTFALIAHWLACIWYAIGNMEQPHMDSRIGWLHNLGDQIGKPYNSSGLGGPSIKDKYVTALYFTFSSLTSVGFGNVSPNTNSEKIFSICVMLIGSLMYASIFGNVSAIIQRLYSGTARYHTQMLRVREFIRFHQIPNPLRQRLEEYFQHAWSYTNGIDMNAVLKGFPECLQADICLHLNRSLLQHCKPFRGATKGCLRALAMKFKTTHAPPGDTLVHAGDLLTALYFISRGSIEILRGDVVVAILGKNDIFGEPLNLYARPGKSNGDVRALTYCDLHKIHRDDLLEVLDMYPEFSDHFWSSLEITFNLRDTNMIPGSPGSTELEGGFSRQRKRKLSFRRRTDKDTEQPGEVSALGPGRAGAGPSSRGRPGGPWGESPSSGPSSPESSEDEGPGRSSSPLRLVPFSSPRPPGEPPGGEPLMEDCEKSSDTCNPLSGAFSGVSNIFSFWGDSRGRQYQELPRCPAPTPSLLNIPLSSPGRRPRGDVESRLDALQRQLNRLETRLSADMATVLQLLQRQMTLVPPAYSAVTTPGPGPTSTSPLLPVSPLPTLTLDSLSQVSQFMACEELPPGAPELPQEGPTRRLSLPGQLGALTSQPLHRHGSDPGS

CCC1CC2CC3c4[nH]c5ccc(O)cc5c4CCN(C2)C13 (stereo not drawn) [Noribogaine, Noribogaine hydrochloride]
response, Fig. S5b concentration-response point (replicates) ([1]; M = -4): 63.4148 and 52.568 and 43.4303 and -3.268 and 15.5992 and -3.578 and 46.3729 and 68.2306 and 65.5059
response, Fig. S5b concentration-response point (replicates) ([1]; M = -5): 44.129 and 7.591 and 58.3969 and -7.944 and -3.52 and -16.5221 and 8.861 and 66.0772 and 47.0286
response, Fig. S5b concentration-response point (replicates) ([1]; M = -6): 20.3519 and 3.61 and -1.914 and -21.4522 and 4.635 and -8.327 and 2.307 and 50.686 and 6.38
response, Fig. S5b concentration-response point (replicates) ([1]; M = -7): -3.613 and 22.2417 and 10.4815 and -11.7203 and -7.426 and -8.634 and -0.3969 and 6.635 and -33.8028
response, Fig. S5b concentration-response point (replicates) ([1]; M = -8): -6.02 and -4.0285 and -3.934 and -14.0445 and 2.721 and -12.2464 and 2.029 and -16.111 and -2.683
response, Fig. S5b concentration-response point (replicates) ([1]; M = -9): 5.431 and -20.2939 and -8.392 and 0.6992 and -6.586 and -12.3198 and -2.633 and 36.0973 and 2.925
response, Fig. S5b concentration-response point (replicates) ([1]; M = -10): 4.023 and 14.614 and -14.1911 and -26.8111 and -11.2252 and 12.0579 and -0.5811 and 6.156 and 9.5717
response, Fig. S5b concentration-response point (replicates) ([1]; M = -11): -10.3398 and -7.2943 and -10.3521 and -20.7885 and 4.252 and -10.5358 and -2.026 and -5.486 and -20.474
Emax ([1]; normalized to Emax of U-50,488): 46%
Emax [2]: 19%
EC50 ([2]; (95% CI)): 9.11 µM
Fig. S5h concentration-response data point ([2]; M = -4): 24.8885 and 26.6264 and 27.7428 and 17.4963 and -8.212 and 30.4244 and 10.6283 and 6.222 and 21.9832
Fig. S5h concentration-response data point ([2]; M = -5): 8.23 and 17.0849 and 17.7259 and 22.4715 and 22.153 and 9.821 and 3.187 and 0.3566 and 4.1
Fig. S5h concentration-response data point ([2]; M = -6): 4.604 and 7.207 and -5.062 and 6.292 and -3.562 and -1.853 and 2.1627 and 6.968 and -3.361
Fig. S5h concentration-response data point ([2]; M = -7): 5.516 and -3.12 and 0.3751 and -1.392 and 9.617 and 0.0554 and -3.657 and -2.623 and -4.7725
Fig. S5h concentration-response data point ([2]; M = -8): 2.807 and -9.751 and -4.108 and 4.434 and 1.624 and 11.894 and 1.215 and 7.908 and -0.803
Fig. S5h concentration-response data point ([2]; M = -9): 3.672 and 14.0917 and -2.71 and 1.993 and 2.042 and -8.571 and -5.966 and 3.235 and -0.5438
Fig. S5h concentration-response data point ([2]; M = -10): 5.694 and 7.45 and -0.02465 and -4.39 and 8.693 and -12.0081 and -1.935 and 3.572 and 2.108
Fig. S5h concentration-response data point ([2]; M = -11): 0.01325 and 7.439 and 24.776 and 1.616 and -6.541 and -6.127 and 16.1632 and 10.3257 and 7.821
response, Fig. S5c concentration-response point (replicates) ([3]; M = -4): 0.6832 and -2.533 and 1.849 and 9.706 and 9.178 and 4.549 and -7.153 and 2.312 and 4.8409
response, Fig. S5c concentration-response point (replicates) ([3]; M = -5): 9.7994 and 6.733 and 8.435 and 9.706 and 10.7702 and 15.0341 and 0.9856 and -0.8825 and 4.299
response, Fig. S5c concentration-response point (replicates) ([3]; M = -6): 9.626 and 6.623 and 8.559 and 3.312 and 9.163 and -0.7272 and 9.077 and 6.531 and 9.714
response, Fig. S5c concentration-response point (replicates) ([3]; M = -7): 8.087 and 5.264 and 16.9405 and 8.98 and 10.0186 and 11.1512 and 4.05 and 6.477 and 19.1494
response, Fig. S5c concentration-response point (replicates) ([3]; M = -8): 10.1716 and 9.452 and 9.651 and 4.904 and -0.3201 and 10.6815 and 14.8896 and 2.949 and 7.869
response, Fig. S5c concentration-response point (replicates) ([3]; M = -9): 2.743 and 3.189 and 8.9111 and 2.535 and 1.402 and 3.813 and 4.639 and -0.2876 and 6.5008
response, Fig. S5c concentration-response point (replicates) ([3]; M = -10): 4.986 and 10.7522 and 12.8464 and -2.314 and -2.554 and 4.868 and 5.9 and 1.688 and 15.6928
response, Fig. S5c concentration-response point (replicates) ([3]; M = -11): 8.177 and 6.107 and 7.7052 and 7.712 and 6.632 and -6.719 and 26.9849 and 11.0819 and 18.0666
% effect at 100 µM ([3]; at 100 µM): < 4%
Emax [4]: 104%
% displacement at 10 µM ([5]; at 10 µM, n = 1): < 0%
binding affinity for nociceptin receptor (ORL-1/NOP) ([5]; up to 10 µM): No binding affinity
inhibition at 10 µM ([6]; 1.00E-05 M): 10%
inhibition at 1 µM ([6]; 1.00E-06 M): 7%
suppression of responding maintained by food on day 1 [7]: > 80%
% Stability (4 h) [8]: 105%
% Unbound ([8]; plasma, pH 7.4): 40.1%
Ki [9]: 2000 nM
QT prolongation [10]: > 500 ms
recovery at 4 h, 5 µM [11]: 75%
fraction unbound ([11]; plasma): 0.401
EC50 [12]: 11.1 µM
Emax [12]: 57%
